These results are taken from publication PMC2359919, “Molecular targeting of retinoic acid metabolism in neuroblastoma: the role of the CYP26 inhibitor R116010 in vitro and in vivo” (British Journal of Cancer, 2007).

Each structure is given as a SMILES string.

The subject of one test is MYCN. The test can be described thus: MYCN mRNA expression in MYCN-amplified NGP cells, real-time PCR. In kind it is cell-based, human. On the procedure: (§1) SH-SY5Y, SH-EP (N- and S-type cells respectively derived from the parental line SK-N-SH), LAN6, IMR-32, NGP and GIMEN neuroblastoma cell lines were cultured routinely in RPMI 1640 medium containing fetal calf serum (10%) and L-glutamine (2 mM). Cells were grown at 37°C in a humidified incubator containing 5% CO2.
(§2) 13-cis-Retinoic acid and ATRA were dissolved in DMSO and diluted in cell culture medium to obtain final concentrations of 0.1–10 μM. The final concentration of DMSO in all cases was <0.2%. All experiments were performed in dim light and tubes containing retinoids were wrapped in aluminium foil.
RNA was reverse-transcribed using Promega's Reverse Transcription System according to the manufacturer's instructions, using random hexamer primers. Real-time PCR was performed on 20 ng cDNA using TaqMan gene expression products for human CYP26A1, CYP26B1, CRABPII, RARβ and MYCN in combination with the TaqMan Universal PCR master mix (Applied Biosystems, Warrington, UK). […] As internal standard, β-actin was measured simultaneously using the endogenous control assay provided by Applied Biosystems. […] Standard curves were generated from serial dilutions of cDNA prepared from cells treated with ATRA (1 μM) and the data were analysed using the GeneAmp Sequence Detection System software. CYP26C1 expression was analysed as described previously ([Taimi et al, 2004]).

The subject of test [1] is SH-SY5Y, NGP, SH-EP and GIMEN cells. Kind of test: Intracellular all-trans-4-oxo-RA levels in neuroblastoma cells, LC/MS. It counts as cell-based, human. On the procedure: as §1, §2
Cell pellets obtained from retinoid incubations were re-suspended in 2 ml cell culture medium and disrupted by passing the samples several times through a syringe and hypodermic needle (25G × 1 inches, 0.5 mm × 25 mm; Terumo, Somerset, NJ, USA). Tumour and liver tissues were re-suspended in PBS and homogenised (T25 homogeniser, IKA Laboratories, Staufen, Germany). Retinoids were extracted as described previously ([Veal et al, 2002]; [Armstrong et al, 2005b]). Samples were reconstituted in 200 μl mobile phase A (n-hexane:dichloromethane:propan-2-ol, 400 : 1 : 0.27) and analysed by normal-phase HPLC as described previously ([Veal et al, 2002]). For LC/MS analysis, samples were reconstituted in 200 μl mobile phase A (50% acetonitrile, 50% (0.2%) acetic acid, v v^−1).
Resolution of retinoids was performed with a Luna C18(2) column (3 μm, 50 mm × 2 mm) using a Perkin Elmer LC (Beaconsfield, UK) system, consisting of a vacuum degasser, two series 200 pumps, a thermostatically controlled series 200 autosampler and a Waters 2487 UV absorbance detector. Retinoic isomers and metabolites were separated by gradient reversed-phase chromatography. An injection volume of 20 μl with a flow rate of 0.2 ml min^−1 was used with mobile phase A (50% acetonitrile, 50% (0.2%) acetic acid, v v^−1) and mobile phase B (acetonitrile, 0.1% acetic acid, v v^−1). Linear gradients were employed between the specified times as follows: 0, 100% A; 5 min, 100% A; 15 min, 100% B; 20 min, 100% B; 23 min, 100% A; 35 min, 100% A. An Applied Biosystems (Warrington, UK) API-2000 LC/MS/MS triple Q (quadrupole) mass spectrometer with electrospray ionisation source, controlled by Analyst software, was operated in single quadrupole negative mode for the detection of compounds.

Test [2] concerns CYP26A1. Kind of test: CYP26A1 expression in SH-SY5Y xenograft tumours. In kind it is in vivo, CD-1 nude mice. On the procedure: All in vivo experiments were approved by the relevant institutional animal welfare committees, and performed according to national law. Female athymic nude mice (CD-1 nu/nu, Charles River) used for antitumour studies were maintained and handled in isolators, under specific pathogen-free conditions, at 24°C with a 12 h light, 12 h dark cycle. Tumours were generated by implantation of SH-SY5Y cells subcutaneously (s.c.) into one flank of CD-1 nude mice (1 × 10^7 cells per animal).
Treatments began when the tumours were between 7 and 10 mm in length and breadth. Retinoids and R116010 were initially dissolved in DMSO before 10- or 20-fold dilutions in PBS, respectively. For pharmacokinetic studies, the animals were dosed with ATRA or 13cisRA (each 100 mg kg^−1) orally for 0.5, 2 and 6 h. […]
(§3) RNA was reverse-transcribed using Promega's Reverse Transcription System according to the manufacturer's instructions, using random hexamer primers. […] As internal standard, β-actin was measured simultaneously using the endogenous control assay provided by Applied Biosystems. […] Standard curves were generated from serial dilutions of cDNA prepared from cells treated with ATRA (1 μM) and the data were analysed using the GeneAmp Sequence Detection System software. CYP26C1 expression was analysed as described previously ([Taimi et al, 2004]).

The subject of test [3] is SH-SY5Y, NGP, SH-EP and GIMEN cells. On the set-up: method as in Armstrong et al, 2005b. Conditions: SH-SY5Y neuroblastoma cells; ref Armstrong et al, 2005b; cited from earlier work.
Test [4] has as its system CYP26A1. The test can be described thus: CYP26A1 mRNA expression in neuroblastoma cells, real-time PCR. It counts as cell-based, human. The conditions noted are these: 0.1 μM retinoid, 24 h; panel of neuroblastoma cell lines; relative to SH-SY5Y cells treated with 0.01 μM ATRA. On the procedure: as §1, §2
CYP26 short hairpin RNAs (shRNAs) were generated using the siSTRIKE U6 Hairpin Cloning System (Promega, Southampton, UK). The CYP26A1, B1 and Ctrl siRNA sequences were designed using Promega software. […]
as §3
Background: Real-time PCR tracks product formation cycle by cycle.

A further test concerns neuroblastoma cell lines. On the set-up: method as in Villablanca et al, 1995. The conditions noted are these: ref Villablanca et al, 1995; cited from earlier work.

For the compound `C[C@@H]([C@H](c1ccc(Nc2nc3ccccc3s2)cc1)n1ccnc1)N(C)C` [R116010], in the test on MYCN (ATRA or 13cisRA 0.1 μM with R116010 1 μM vs retinoid alone), the “Effect on downregulation of MYCN expression by ATRA or 13cisRA” value is on record as “enhanced”. Besides, the “Effect on MYCN expression, R116010 alone” value with MYCN (R116010 alone (1 μM)) is listed as “small but significant increase”. Further, the “Decrease in AT-4-oxo-RA levels” value was found to be 13.2 fold in test [1] (NGP cells, 10 μM 13cisRA with 10 μM R116010, 24 h) and 3.5 fold in test [1] (SH-SY5Y cells, 10 μM 13cisRA with 10 μM R116010, 24 h). Besides, the “Reduction in intracellular AT-4-oxo-RA levels” value is 3.8 fold in test [1] (NGP cells, 10 μM ATRA with 10 μM R116010, 24 h) and 3 fold in test [1] (SH-SY5Y cells, 10 μM ATRA with 10 μM R116010, 24 h). In addition, the “Effect on AT-4-oxo-RA levels” value in test [1] (SH-EP and GIMEN cells, 10 μM 13cisRA with 10 μM R116010, 24 h) is recorded as “no significant effect”. In addition, the “Effect on intracellular AT-4-oxo-RA levels” value in test [1] (low CYP26-expressing cell lines (SH-EP, GIMEN), 10 μM ATRA with 10 μM R116010, 24 h) was “no significant effect”. For the same compound, the “Increase in CYP26A1 expression in tumours” value in the test on CYP26A1 [2] (13cisRA with two doses of R116010 at 2.5 mg kg^−1 vs 13cisRA alone, individual animals, data not shown) is recorded as 4- to 20 fold. Further, the “Effect on CYP26A1 expression in tumours” value in the test with CYP26A1 [2] (R116010 prior ATRA) is reported as “not significantly different”. The “Inhibition of ATRA metabolism” value in test [3] is “inhibits ATRA metabolism”.

`CC1=C(/C=C/C(C)=C/C=C/C(C)=C/C(=O)O)C(C)(C)CCC1` [ATRA, all-trans-retinoic acid]: the CYP26A1 induction entry in the test with CYP26A1 [4] is “induced to various extents in SH-SY5Y, LAN6 and NGP cells”.

Consider `CC1=C(/C=C/C(C)=C/C=C/C(C)=C\C(=O)O)C(C)(C)CCC1` [13cisRA, 13-cis-retinoic acid], for which the “Concentration effective against neuroblastoma cell lines in vitro” value in the test on neuroblastoma cell lines was 5 µM.
